Values of other authors, collected in patent US6548637B1, “Ligands for opioid receptors” (Sepracor, Inc., priority 1998, dated 2003).

Test system: mice
Conditions: intracerebroventricular injections to mice

SMILES | ED50 (analgesia)
NC(=O)[C@H](Cc1ccccc1)NC(=O)[C@H](Cc1c[nH]c2ccccc12)NC(=O)C1CCCN1C(=O)[C@@H](N)Cc1ccc(O)cc1 (stereo partly drawn) [Example 1, Tyr-Pro-Trp-Phe-NH2] | 8.4 µg
NC(=O)C(Cc1ccccc1)NC(=O)[C@H](Cc1ccccc1)NC(=O)C1CCCN1C(=O)[C@@H](N)Cc1ccc(O)cc1 (stereo partly drawn) [Example 2, Tyr-Pro-Phe-Phe-NH2] | 2.9 µg
